Laboratory results reported in paper PMC9995734, “Polysulfide metabolizing enzymes influence SqrR-mediated sulfide-induced transcription by impacting intracellular polysulfide dynamics” (PNAS Nexus, 2023).

Tests used:
[1] = biological target: T1, SqrR (Rhodobacter capsulatus, UniProt D5AT91); assay: fluorescence anisotropy of DNA dissociation; LC-ESI-MS of adducts; type: binding; conditions: covalent; pseudo-first-order oxidation of C41/C107; 20-fold excess sulfane sulfur, persulfide made in situ; DNA-bound SqrR; 25 mM HEPES pH 7.0, 400 mM NaCl, 1 mM EDTA, 25°C
T1 construct: recombinant, full-length, reduced C9S protomer 12295 amu
T1 sequence (D5AT91 15-124): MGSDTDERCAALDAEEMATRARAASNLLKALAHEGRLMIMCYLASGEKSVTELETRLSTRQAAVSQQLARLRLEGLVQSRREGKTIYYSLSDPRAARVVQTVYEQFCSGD
Text: fluorescence anisotropy of DNA dissociation; LC-ESI-MS of adducts on SqrR

[2] = biological target: T2, SQR (Rhodobacter capsulatus, UniProt D5APH8); assay: co-purification; type: binding; conditions: noncovalently bound
T2 sequence (D5APH8 1-427): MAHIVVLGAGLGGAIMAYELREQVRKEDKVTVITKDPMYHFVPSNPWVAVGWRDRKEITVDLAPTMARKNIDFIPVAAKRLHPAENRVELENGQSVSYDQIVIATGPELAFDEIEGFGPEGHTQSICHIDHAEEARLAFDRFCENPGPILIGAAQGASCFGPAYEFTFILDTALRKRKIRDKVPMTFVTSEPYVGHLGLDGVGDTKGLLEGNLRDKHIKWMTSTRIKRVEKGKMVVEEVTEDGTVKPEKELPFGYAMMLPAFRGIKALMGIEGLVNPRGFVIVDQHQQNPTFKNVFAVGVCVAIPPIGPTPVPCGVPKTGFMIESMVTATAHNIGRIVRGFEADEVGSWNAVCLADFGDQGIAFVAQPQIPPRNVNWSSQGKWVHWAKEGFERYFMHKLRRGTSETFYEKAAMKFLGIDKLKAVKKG

[3] = biological target: T2, SQR; assay: steady-state sulfide:quinone reductase assay; type: biochemical; conditions: electron acceptor at 100 μM; 4 mM KCN as S0 acceptor, Na2S 0-640 μM, 100 nM SQR
[4] = system: SqrR C9S (reduced) (Rhodobacter capsulatus (SB1003?)); assay: fluorescence anisotropy; conditions: SqrR titrated into fluorescein-labeled operator in quartz cuvette without TCEP, buffer, salt, pH and temperature not given in the …
[5] = system: SqrR C9S, CysSSH-treated (oxidized) (Rhodobacter capsulatus (SB1003?)); assay: fluorescence anisotropy; conditions: SqrR titrated into fluorescein-labeled operator in quartz cuvette without TCEP, buffer, salt, pH and temperature not given in the …
[6] = system: SqrR C9S, GSSH-treated (oxidized) (Rhodobacter capsulatus (SB1003?)); assay: fluorescence anisotropy; conditions: SqrR titrated into fluorescein-labeled operator in quartz cuvette without TCEP, buffer, salt, pH and temperature not given in the …

N[C@@H](CSS)C(=O)O [cysteine persulfide]
kox [x 10^-3 s^-1]^a / CSSH [1]: 3.8 ± 0.1 x 10^-3 s^-1

Cc1cc2nc3c(=O)[nH]c(=O)nc-3n(C[C@H](O)[C@H](O)[C@H](O)COP(=O)(O)OP(=O)(O)OC[C@H]3O[C@@H](n4cnc5c(N)ncnc54)[C@H](O)[C@@H]3O)c2cc1C [flavin adenine dinucleotide]
co-purification [2]: recombinant R. capsulatus SQR noncovalently bound with flavin adenine dinucleotide (FAD)

N[C@@H](CCC(=O)N[C@@H](CSS)C(=O)NCC(=O)O)C(=O)O [glutathione persulfide]
kox [x 10^-3 s^-1]^a / GSSH [1]: 0.86 ± 0.05 x 10^-3 s^-1

CC1=CC(=O)c2ccccc2C1=O [menadione]
steady-state sulfide:quinone reductase assay [3]: the steady-state activity was higher with MD

COC1=C(OC)C(=O)C(CC=C(C)C)=C(C)C1=O [ubiquinone-1]
steady-state sulfide:quinone reductase assay [3]: the activity with UQ-1 was also sufficient for further analyses

TGACATATTCACAACTCGGAATGTAA / TTACATTCCGAGTGGTGAATATGTCA
Ka [4]: 270 10^5 M-1
Ka [5]: 1.8 10^5 M-1
Ka [6]: 2.5 10^5 M-1
